Data set [1] concerns Interleukin-2 (IL-2) production/release in Jurkat T cell line. Description: Jurkat IL-2 Production Assay. It counts as cell-based. To be noted: Homo sapiens; Jurkat T cells, PHA stimulation 22 hours. The method in brief: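 Jurkat E6-1 cells (5*10^5/well) preincubated 30 min with compound, then stimulated with 15 μg/ml PHA for 22 h at 37 °C. IC50 from 8-point 1:3.16 dilutions starting at 10 μM.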

Data set [2] is described as follows: Nephelometric Solubility Measurement. The conditions noted are these: aqueous buffer, kinetic from dmso stock; phosphate buffered saline pH 7.4, 37° C., incubation 2 minutes. It counts as physicochemical. As to the method:
Nephelometric Solubility Measurement
BMG Labtech Nephelostar (S/N 504-0167), 37° C.; Gain: 100; Laser Beam Focus 1.5 mm; Laser intensity 80%; measurement time/well 0.1 s; positioning delay 0.1 s; data analysis: BMG Labtech MARS software
Measurements with BMG Labtech Nephelostar performed though addition of DMSO stock solutions of compound (2, 5, 10, 20, 30, 40, 50, 60, 80, 100 [μg/mL]) into phosphate buffered saline (pH 7.4, purchased from Invitrogen, catalogue number 10010-056); incubation time: 2 minutes [blank measurement contains DMSO (2.5 μL) and buffered saline (47.5 μL)]; Detection of insoluble particles in liquid samples was performed by measuring forward scattered light.

Data set [3] concerns the target T1, CRAC channel (endogenous SOC in HEK293 cells) (Homo sapiens, UniProt Q96D31).
T1 construct: endogenous in cells; host or cells: HEK293 (ECACC)
The data set can be described thus: HEK Calcium Influx Assay (FLIPR). It counts as cell-based. In outline:
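Endogenous SOC in HEK293 cells, Calcium-4 dye-loaded; stores depleted with 2 μM thapsigargin in Ca2+-free HBS (100 μM EGTA, pH 7.4) 10 min, then 3 mM CaCl2 added. Compound given after 15 min; signal averaged 9.5–10 min post-addition versus DMSO and non-TG controls. IC50 from 8-point 1:3.16 series starting 10 μM.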

Setting [4] is: thapsigargin store depletion, read-out: % inhib. [@ 10 μM] FLIPR.

Converted amounts (≈) assume the structure as drawn. Read-outs that look alike come from different tables or passages of the source.

T1 sequence (Q96D31 whole entry): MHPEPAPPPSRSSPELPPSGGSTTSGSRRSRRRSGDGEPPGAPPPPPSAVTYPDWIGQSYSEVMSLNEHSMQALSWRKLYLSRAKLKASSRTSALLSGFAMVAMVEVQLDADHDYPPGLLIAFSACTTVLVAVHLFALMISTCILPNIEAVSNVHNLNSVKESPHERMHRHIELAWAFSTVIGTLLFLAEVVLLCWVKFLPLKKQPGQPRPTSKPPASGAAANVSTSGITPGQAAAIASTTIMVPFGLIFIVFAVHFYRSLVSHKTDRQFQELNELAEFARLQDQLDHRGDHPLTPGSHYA

As a reminder, the IC50 is the concentration at which inhibition is half-maximal. The term solubility denotes the concentration that dissolves in the medium under given conditions. As to `CCOc1cc(C)c(-c2cc(C(=O)Nc3c(F)cccc3F)nn2C)cn1` [Example 3, N-(2,6-Difluoro-phenyl)-5-(6-ethoxy-4-methyl-pyridin-3-yl)-1-methyl-1H-pyrazole-3-carboxylic acid amide], in data set [1], the IC50 is below 0.5 µM. The same compound registered a solubility at 2 min in data set [2] of 149 µM (≈ 55.6 µg/mL). In addition, the inhibition at 10 µM in data set [3] (numeric values of Table 2, read-out: inhib. [@ 10 μM] FLIPR) is 75%; in data set [3] (setting [4]), above 70%.
Turning to `COc1cc(OC)c(-c2ccc(NC(=O)c3c(F)cccc3F)cc2)cn1` [Comparative example #4, reference compound], in data set [2], the solubility at 2 min worked out at 38.8 µM (≈ 14.4 µg/mL).
On the same count and under the same terms, then `CCOc1cc(C)c(-c2ccc(NC(=O)c3c(F)cccc3F)cc2)cn1` [Comparative example #3, reference compound], with below 14 µM.
For `COc1ncc(-c2nn(C)c(=O)o2)cc1-c1cc(C(=O)Nc2c(F)cccc2F)nn1C` [Example 74, N-(2,6-Difluoro-phenyl)-5-[2-methoxy-5-(4-methyl-5-oxo-4H-[1,3,4]oxadiazol-2-yl)-pyridin-3-yl]-1-methyl-1H-pyrazole-3-carboxylic acid amide], the IC50 in data set [1] is 1 to 5 µM. The compound further had a solubility at 2 min in data set [2] of 131 µM (≈ 57.8 µg/mL). The inhibition at 10 µM in data set [3] (setting [4]) was below 50%.
Consider `COc1cc(OC)c(-c2cc(C(=O)Nc3c(F)cccc3F)nn2C)cn1` [Example 38, N-(2,6-Difluoro-phenyl)-5-(4,6-dimethoxy-pyridin-3-yl)-1-methyl-1H-pyrazole-3-carboxylic acid amide], for which, in data set [1], the IC50 was below 0.5 µM. Further, the solubility at 2 min in data set [2] was above 267 µM. In addition, the inhibition at 10 µM in data set [3] (setting [4]) was above 70%.
In the case of `COc1ncc(-c2nn(C)c(=O)o2)cc1-c1ccc(NC(=O)c2c(F)cccc2F)cc1` [Comparative example #5, reference compound], the solubility at 2 min in data set [2] was below 11 µM.

These data come from US20150166505A1, “PYRIDINYL-SUBSTITUTED PYRAZOLYL CARBOXAMIDES” (GRÜNENTHAL GMBH, priority 2013, published 2015).
